Values quoted from earlier work, collected in patent US12187744B2, “IRAK4 degraders and synthesis thereof” (Kymera Therapeutics, Inc., priority 2021, dated 2025).

Legend:
[1] = per ICH M7(R1) guidance
[2] = in vivo

Compound | ICH M7(R1) Class [1] | results in rodent carcinogenicity assays [2]
CC(C)Cl [Isopropyl chloride] | 2 | 
CI [Methyl iodide] |  | positive
